Assay results published in publication PMC3486420, “In Vitro and In Vivo Characterizations of Chiglitazar, a Newly Identified PPAR Pan-Agonist” (PPAR Research, 2012).

Columns and labels:
[1] = tested on: RAW267.4 cells; assay: Gene expression by RT-PCR in RAW267.4 cells; type: cell-based, mouse; settings: 48 h, 10 μM chiglitazar
From the text: (§1) cDNAs for human retinoid X receptor (hRXR), PPARα, PPARγ, and PPARδ were obtained by reverse transcriptase polymerase chain reaction (RT-PCR) from human liver or adipose tissues. Amplified cDNAs were cloned into pcDNA3.1 expression vector (Invitrogen, Carlsbad, CA, USA). The integrity and fidelity of all constructs made were verified by DNA sequencing. Luciferase reporter plasmids, ACOX promoter for PPARγ and pHD(X3)-luc for PPARα, were kind gifts of Drs. TM McIntyre (University of Utah, USA) and RA Rachubinski (University of Alberta, Canada), respectively. PPRE-luc for PPARδ was constructed based on the previous report by insertion of the annealed oligonucleotides having four copies of the CYP4A6 PPRE (4 × […]) into the upstream of the luciferase coding sequence in pGL3-promoter vector (Promega, Madison, WI, USA). pCMVβGal was purchased from Clontech (Palo Alto, CA, USA). The mouse 3T3-L1 preadipocyte cell line, skeletal muscle C2C12 cell line, and macrophage RAW267.4 cell line and the human osteosarcoma U2OS cell line were obtained from the American Type Culture Collection (ATCC, Rockville, MD, USA). The human hepatoma SMMC-7721 cell line was obtained from the Cell Culture Center of Chinese Academy of Medical Sciences (Beijing, China). Cell lines were cultured in medium of DMEM (3T3-L1, C2C12, and SMMC-7721), RPMI 1640 (RAW267.4), or McCoy's 5A (U2OS), containing 10% fetal bovine serum (FBS), 50 μg/mL streptomycin, and 50 units/mL penicillin at 37°C in a humidified incubator with 5% CO2.
Total RNA was extracted from cells or tissues with an RNeasy minikit (Qiagen, Valencia, CA, USA). The first-strand cDNA was synthesized using the oligo(dT) primers, followed by using SuperScript II reverse transcriptase (Invitrogen) according to the manufacturer's instructions. The PCR amplifications were performed in 10 μL of reaction mixture volume containing 0.8 μL of cDNA, 10 mM Tris-HCl (pH 8.3), 50 mM KCl, 1.5 mM MgCl2, 0.1% Triton X-100, 0.2 mM deoxynucleotide triphosphates, 0.4 μM primers, and 0.25 U of Taq polymerase (TaKaRa Biotechnology Co., Ltd, China). Taq DNA polymerase was added to each tube after a treatment of 2 min at 94°C. This was followed by 22–30 cycles of denaturation (23 s at 94°C), annealing (20 s at 55°C), extension (30 s at 72°C), and a final extension step of 2 min. PCR products were analyzed by electrophoresis on a 1.5% agarose gel stained with ethidium bromide.
Figure 1 In vitro regulation of gene expression by chiglitazar. (a) Endogenous expression of individual PPAR subtypes in cell lines. […]. The expression change of referred genes induced by different compounds was normalized against internal control (36B4 or GAPDH) and then compared with vehicle control treatment. The data shown are averaged from 3 independent experiments.

[2] = tested on: C2C12 cells; assay: Gene expression by RT-PCR in C2C12 cells; type: cell-based, mouse; settings: 48 h, 10 μM chiglitazar, 50 μM WY14643, 5 μM 2-Bro, compared with rosiglitazone 10 μM
From the text: as §1
Total RNA was extracted from cells or tissues with an RNeasy minikit (Qiagen, Valencia, CA, USA). The first-strand cDNA was synthesized using the oligo(dT) primers, followed by using SuperScript II reverse transcriptase (Invitrogen) according to the manufacturer's instructions. […] PCR products were analyzed by electrophoresis on a 1.5% agarose gel stained with ethidium bromide. […]

[3] = tested on: db/db mice; assay: Oral treatment of diabetic db/db mice (glucose, insulin, IPGTT, body and fat pad weight); type: in vivo, mouse
From the text: Male db/db mice (BKS.Cg-m +/+ LEPR^db) in 6-7 weeks were purchased from The Jackson Laboratory (Bar Harbor, ME, USA). Male KKAy and C57BL/6J mice in 8–10 weeks were obtained from the Institute of Animal Science, Chinese Academy of Medical Sciences and Peking Union Medical College (Beijing, China). Animals were randomly sorted into different treatment groups (8–10 per group). […] Plasma glucose levels were examined at various time points by Accu-Chek Advantage II Glucose Strips (Roche Diagnostics, Basel, Switzerland) and measured by Accu-Chek Advantage (Roche Diagnostics). Animals were sacrificed 24 h after the last dosing and abdominal fat pad, liver, and skeletal muscle from KKAy mice and abdominal fat pad from db/db mice were taken for gene expression analysis.
For intraperitoneal glucose tolerance test (IPGTT), db/db mice dosed for 14 days were fasted overnight, followed by an intraperitoneal injection of glucose (2 g kg^−1). Blood samples were taken for measurement of plasma glucose before and 30, 60, and 120 min after the glucose load. The area under curves (AUC) was calculated to evaluate the IPGTT results. To determine plasma insulin concentrations, blood samples were taken from db/db mice dosed with different reagents or vehicle for 0, 3, 6, and 9 d, and insulin levels were measured by Insulin ELISA Kit (Roche Diagnostics) following the instructions from the manufacture.
Figure 2 In vivo effects on blood glucose control and insulin sensitization of chiglitazar. Male db/db (a, c and d) and male KKAy mice (b) were treated with vehicle (Ctrl), rosiglitazone (Ros), or chiglitazar (Chi) at the indicated doses for various days. Plasma glucose (a and b) and insulin (c) levels were measured at the indicated time points. […] Data are expressed as mean ± SE.
Figure 4 Influence in body and abdominal fat pad weights of chiglitazar. […] Changes in body weight were evaluated at the indicated days (b), and the fat pads were weighed from the scarified animals at day 15 (c). ^# P < 0.05 compared with day 0, and *P < 0.05 compared with Ctrl. n = 8 per group for KKAy, and n = 10 per group for db/db. Data are expressed as mean ± SE.

[4] = tested on: beagle dogs; assay: Heart weight in beagle dogs, chronic treatment; type: in vivo, dog; settings: same regime (6 months), 54 mg kg^−1 (~1000 mg/m^2), data not shown

SMILES: O=C(c1ccc(F)cc1)c1ccccc1NC(Cc1ccc(OCCn2c3ccccc3c3ccccc32)cc1)C(=O)O (stereo not drawn) [Chi, 2-[(2-(4-fluorobenzoyl)phenyl)amino]-3-[4-(2-carbazolylethoxy)-phenyl]-propionic acid]
- Expression of PPARα and/or PPARδ downstream gene SRA ([1]; 50 μM WY14643, 5 μM 2-Bro, compared with rosiglitazone 10 μM): more significantly upregulated
- Expression of PPARγ downstream gene CD36 ([1]; 10 μM rosiglitazone, vs vehicle): upregulated
- Expression of PPARα and/or PPARδ downstream genes CPT-1a and CPT-1b [2]: more significantly upregulated
- Glucose tolerance (IPGTT) ([3]; db/db mice, 20 mg kg^−1 oral daily, 14 days): increased
- Body weight ([3]; db/db mice, 5, 10 and 20 mg kg^−1 oral daily, 14 days): dose-dependent weight gain
- Abdominal fat pad weights ([3]; db/db mice, chiglitazar 20 mg kg^−1 vs rosiglitazone 5 mg kg^−1, 14 days): less increase
- BG (blood glucose) levels ([3]; db/db mice, oral daily, 5 to 20 mg kg^−1, 14 days): significantly lowered
- Plasma insulin concentrations ([3]; db/db mice, oral daily, different doses, compared with vehicle control): markedly decreased
- Heart weight [4]: did not induce significant increase
